From PubChem BioAssay AID330 (DTP/NCI, 2004) come the findings set out here.

For the experiment, the system named is P388 leukemia ip, CD2F1 mice, survival T/C. The experiment in a line: NCI In Vivo Anticancer Drug Screen. Data for tumor model P388 Leukemia (intraperitoneal) in CD2F1 (CDF1) mice. Particulars: endpoint: median survival time, higher = longer survival. An outline of the steps:
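Mice carrying the transplanted tumor received test compound or vehicle. Survival was recorded in each group, and the value is the treated-group measurement divided by that of the vehicle-treated control group.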

[1] abbreviates: dose: 50.0 mg/kg/injection, schedule: Q01DX005 (ip), vehicle: saline.
Setting [2] is: dose: 100.0 mg/kg/injection, schedule: Q01DX005 (ip), vehicle: saline.
The mark [3] stands for this setting: dose: 200.0 mg/kg/injection, schedule: Q01DX005 (ip), vehicle: saline.
The mark [4] stands for this setting: dose: 100.0 mg/kg/injection, schedule: Q01DX001 (ip), vehicle: Klucel (hydroxypropylcellulose) (HPC).
[5] abbreviates: dose: 200.0 mg/kg/injection, schedule: Q01DX001 (ip), vehicle: Klucel (hydroxypropylcellulose) (HPC).
Setting [6] is: dose: 50.0 mg/kg/injection, schedule: Q01DX005 (ip), vehicle: Klucel (hydroxypropylcellulose) (HPC).
The mark [7] stands for this setting: dose: 100.0 mg/kg/injection, schedule: Q01DX005 (ip), vehicle: Klucel (hydroxypropylcellulose) (HPC).
The mark [8] stands for this setting: dose: 200.0 mg/kg/injection, schedule: Q01DX005 (ip), vehicle: Klucel (hydroxypropylcellulose) (HPC).
Setting [9] is: dose: 10.0 mg/kg/injection, schedule: Q01DX009 (ip), vehicle: saline with Tween-80.

“And” between values parts separate entries of the source, which are not always exact repeats. Identical values can stand only once. Toxic doses and inconclusive results are not listed.

In the case of `CC1=N[C@@H](N2CCOCC2)[C@H](N2CCOCC2)N1c1ccccc1`, the T/C is 100 % of control under setting [1], 107 % of control under setting [2] and 102 % of control under setting [3].

With `CC(C)(C)N=C(CCN1CCOCC1)Nc1ccccc1Cl`, the T/C (dose: 50.0 mg/kg/injection, schedule: Q01DX009 (ip), vehicle: saline with Tween-80) was 113 % of control; the T/C (dose: 100.0 mg/kg/injection, schedule: Q01DX009 (ip), vehicle: saline with Tween-80) was 106 % of control; the T/C (dose: 200.0 mg/kg/injection, schedule: Q01DX009 (ip), vehicle: saline with Tween-80) is 109 % of control.

For `N#CC1=C(Nc2ccccc2Cl)SC(c2ccncc2)NC1=O` (stereo not given), the T/C (dose: 120.0 mg/kg/injection, schedule: Q01DX005 (ip), vehicle: Klucel (hydroxypropylcellulose) (HPC)) was 111 % of control and the T/C (dose: 240.0 mg/kg/injection, schedule: Q01DX005 (ip), vehicle: Klucel (hydroxypropylcellulose) (HPC)) was 105 % of control.

With `Cc1ccc(-c2nc3n(c2C=O)CCS3)cc1`, the T/C by setting is: under setting [4], 112 % of control; under setting [5], 106 % of control; (dose: 400.0 mg/kg/injection, schedule: Q01DX001 (ip), vehicle: Klucel (hydroxypropylcellulose) (HPC)) 98 % of control.

With `CC(C)[C@H](N)C(=O)NCCNC(=O)[C@@H](N)C(C)C`, the T/C was 91 % of control (dose: 60.0 mg/kg/injection, schedule: Q01DX005 (ip), vehicle: saline) and 98 % of control (dose: 120.0 mg/kg/injection, schedule: Q01DX005 (ip), vehicle: saline).

On to `CCN1C(=O)c2ccccc2C1=O`, for which the T/C reads like this: (dose: 50.0 mg/kg/injection, schedule: Q01DX009 (ip), vehicle: saline) 101 % of control; (dose: 100.0 mg/kg/injection, schedule: Q01DX009 (ip), vehicle: saline) 90 % of control; (dose: 200.0 mg/kg/injection, schedule: Q01DX009 (ip), vehicle: saline) 110 % of control.

For `COC1CCC(OC2CC(C3(C)CCC4(CC(O)C(C)C(C(C)/C=C(\C)C(=O)C(C)CC(C)C(=O)O)O4)O3)OC3(OC(C4OC(O)(CO)C(C)CC4C)CC3C)C2C)OC1C` (stereo not given), the T/C reads like this: (dose: 12.5 micrograms/kg/injection, schedule: Q01DX009 (ip), vehicle: suspension in saline) 106 % of control; (dose: 25.0 micrograms/kg/injection, schedule: Q01DX009 (ip), vehicle: suspension in saline) 108 % of control; (dose: 37.5 micrograms/kg/injection, schedule: Q01DX009 (ip), vehicle: suspension in saline) 114 % of control; (dose: 50.0 micrograms/kg/injection, schedule: Q01DX009 (ip), vehicle: suspension in saline) 108 % of control; (dose: 75.0 micrograms/kg/injection, schedule: Q01DX009 (ip), vehicle: suspension in saline) 109 % of control; (dose: 100.0 micrograms/kg/injection, schedule: Q01DX009 (ip), vehicle: suspension in saline) 100 % of control. For the same molecule, the T/C by setting is: (dose: 150.0 micrograms/kg/injection, schedule: Q01DX009 (ip), vehicle: suspension in saline) 100 % of control; (dose: 200.0 micrograms/kg/injection, schedule: Q01DX009 (ip), vehicle: suspension in saline) 107 % of control; (dose: 400.0 micrograms/kg/injection, schedule: Q01DX009 (ip), vehicle: suspension in saline) 104 % of control.

On to `CCOP(=O)(OCC)C(C#N)OC(C)(C)C` (stereo not given), for which the T/C (dose: 60.0 mg/kg/injection, schedule: Q01DX005 (ip), vehicle: saline with Tween-80) is 109 % of control and the T/C (dose: 120.0 mg/kg/injection, schedule: Q01DX005 (ip), vehicle: saline with Tween-80) was 93 % of control.

As to `CC(C)CC([NH-])C(=O)O.CC(C)CC([NH-])C(=O)O.CC(C)CC([NH-])C(=O)O.[Pr+3]` (stereo not given), the T/C was 107 % of control under setting [6], 102 % of control under setting [7] and 98 % of control under setting [8].

Take `CNC(=O)OCc1c(COC(=O)NC)c(-c2ccc(F)cc2)n(C)c1C`: the T/C (dose: 50.0 mg/kg/injection, schedule: Q01DX009 (ip), vehicle: distilled water + Tween-80) is 91 % of control.

Turning to `O=C(Nc1ccc(Cl)c(Cl)c1)Nc1ccc(Oc2ccc(Cl)cc2Cl)cc1S(=O)(=O)O`, the T/C runs as follows: (dose: 100.0 mg/kg/injection, schedule: Q04DX003 (ip), vehicle: Klucel (hydroxypropylcellulose) (HPC)) 91 % of control; (dose: 200.0 mg/kg/injection, schedule: Q04DX003 (ip), vehicle: Klucel (hydroxypropylcellulose) (HPC)) 100 % of control; (dose: 400.0 mg/kg/injection, schedule: Q04DX003 (ip), vehicle: Klucel (hydroxypropylcellulose) (HPC)) 95 % of control.

`CN(C)CCC(c1ccccc1)C(CO)c1ccccc1` (stereo not given): the T/C by setting is: under setting [4], 116 % of control; under setting [5], 102 % of control.

As for `CC(C)C(N)C(=O)NC(C(=O)NS(=O)(=O)c1ccc(N)cc1)C(C)C` (stereo not given), the T/C was 99 % of control under setting [1], 93 % of control under setting [2] and 98 % of control under setting [3].

With `NS(=O)(=O)c1ncnc2nc[nH]c12`, the T/C was 112 % of control under setting [9]; 112 % of control (dose: 15.0 mg/kg/injection, schedule: Q01DX009 (ip), vehicle: saline with Tween-80); 90 % of control (dose: 30.0 mg/kg/injection, schedule: Q01DX009 (ip), vehicle: saline with Tween-80); 104 % of control (dose: 60.0 mg/kg/injection, schedule: Q01DX009 (ip), vehicle: saline with Tween-80).

As for `Nc1ncnc2nc(Br)[nH]c12`, the T/C by setting is: under setting [6], 111 % of control; under setting [7], 95 % of control; under setting [8], 106 % of control.

For the molecule `O=C(c1ccccc1)[C@@]12COc3ccccc3[C@@H]1ON=C2c1ccccc1`, the T/C under setting [6] is 89 % of control, the T/C under setting [7] is 88 % of control and the T/C under setting [8] was 91 % of control.

On to `CCCCC(=O)N(c1ccc(Nc2c3ccccc3nc3cc([N+](=O)[O-])ccc23)cc1)S(C)(=O)=O`, for which the T/C reads like this: (dose: 0.07 mg/kg/injection, schedule: Q01DX009 (ip), vehicle: saline with Tween-80) 107 % of control; (dose: 0.1 mg/kg/injection, schedule: Q01DX009 (ip), vehicle: saline with Tween-80) 107 % of control; (dose: 0.15 mg/kg/injection, schedule: Q01DX009 (ip), vehicle: saline with Tween-80) 105 % of control; (dose: 0.23 mg/kg/injection, schedule: Q01DX009 (ip), vehicle: saline with Tween-80) 123 % of control; (dose: 0.44 mg/kg/injection, schedule: Q04DX003 (ip), vehicle: saline with Tween-80) 112 % of control; (dose: 0.66 mg/kg/injection, schedule: Q04DX003 (ip), vehicle: saline with Tween-80) 113 % of control. Besides, the T/C by setting is: (dose: 1.0 mg/kg/injection, schedule: Q04DX003 (ip), vehicle: saline with Tween-80) 119 % of control; (dose: 2.5 mg/kg/injection, schedule: Q01DX009 (ip), vehicle: saline with Tween-80) 188 % of control; (dose: 4.4 mg/kg/injection, schedule: Q04DX003 (ip), vehicle: saline with Tween-80) 154 % of control; (dose: 5.0 mg/kg/injection, schedule: Q01DX009 (ip), vehicle: saline with Tween-80) 227 % of control; (dose: 6.6 mg/kg/injection, schedule: Q04DX003 (ip), vehicle: saline with Tween-80) 159 % of control; (dose: 9.38 mg/kg/injection, schedule: Q01DX009 (ip), vehicle: saline with Tween-80) 227 % of control. Also, the T/C was 254 % of control under setting [9]; 168 % of control (dose: 10.0 mg/kg/injection, schedule: Q04DX003 (ip), vehicle: saline with Tween-80); 153 % of control (dose: 10.8 mg/kg/injection, schedule: Q04DX003 (ip), vehicle: water); 186 % of control (dose: 15.0 mg/kg/injection, schedule: Q04DX003 (ip), vehicle: saline with Tween-80); 162 % of control (dose: 18.0 mg/kg/injection, schedule: Q04DX003 (ip), vehicle: water); 180 % of control (dose: 30.0 mg/kg/injection, schedule: Q04DX003 (ip), vehicle: water). For the same molecule, for the setting “dose: 50.0 mg/kg/injection, schedule: Q04DX003 (ip), vehicle: water”, the T/C was 171 % of control.

Turning to `Cc1ccc(N=Nc2ccc(N(CCCl)CCCl)cc2C)c(C(=O)O)c1`, the T/C by setting is: (dose: 12.5 mg/kg/injection, schedule: Q01DX009 (ip), vehicle: saline with Tween-80) 153 % of control and 177 % of control; (dose: 25.0 mg/kg/injection, schedule: Q01DX009 (ip), vehicle: saline with Tween-80) 123 % of control.
